Assay results: paper PMC7582770, “Synthesis of “All-Cis” Trihydroxypiperidines from a Carbohydrate-Derived Ketone: Hints for the Design of New β-Gal and GCase Inhibitors” (Molecules, 2020)

What was measured:
[1] = tested on: α-glucosidase EC 3.2.1.20; experiment: Commercial glycosidase screening; type: biochemical, yeast; conditions: 0.1 mM inhibitor
Description: (§1) A panel of 12 commercial glycosidases (α-L-fucosidase EC 3.2.1.51 from Homo sapiens, α-galactosidase EC 3.2.1.22 from coffee beans, β-galactosidases EC 3.2.1.23 from Escherichia coli and Aspergillus oryzae, α-glucosidases EC 3.2.1.20 from yeast and rice, amyloglucosidase EC 3.2.1.3 from Aspergillus niger, β-glucosidase EC 3.2.1.21 from almonds, α-mannosidase EC 3.2.1.24 from Jack beans, β-mannosidase EC 3.2.1.25 from snail, β-N-acetylglucosaminidases EC 3.2.1.52 from Jack beans and bovine kidney) purchased from Sigma-Aldrich (St. Louis, MO, USA) or Megazyme Ltd. (Bray, Co. Wicklow, Ireland) was screened.
(§2) The percentage (%) of inhibition towards the corresponding glycosidase was determined in quadruplicate in the presence of 100 μM of the inhibitor on the well. Each enzymatic assay (final volume 0.12 mL) contains 0.01–0.5 units/mL of the enzyme (with previous calibration) and 4.2 mM aqueous solution of the appropriate p-nitrophenyl glycopyranoside (substrate) buffered to the optimal pH of the enzyme. Enzyme and inhibitor were preincubated for 5 min at room temperature, and the reaction started by addition of the substrate. After 20 min of incubation at 37 °C, the reaction was stopped by the addition of 0.1 mL of sodium borate solution (pH 9.8). The p-nitrophenolate formed was measured by visible absorption spectroscopy at 405 nm (Asys Expert 96 spectrophotometer, Biochrom Ltd., Cambridge, England). Under these conditions, the p-nitrophenolate released led to optical densities linear with both reaction time and concentration of the enzyme (for more details, see the Supplementary Materials). The IC50 value (concentration of inhibitor required for 50% inhibition of enzyme activity) was determined from plots of % inhibition vs. different inhibitor concentrations. Each point of the graph is the average of four measures. The standard deviation for each point has been also represented in the graph.

[2] = tested on: β-mannosidase EC 3.2.1.25; experiment: Commercial glycosidase screening; type: biochemical, snail; conditions: 0.1 mM inhibitor
Description: as §1, §2

[3] = tested on: β-glucosidase EC 3.2.1.21; experiment: Commercial glycosidase screening; type: biochemical, almonds; conditions: for % Inhibition at 0.1 mM, β-glucosidase almonds: 0.1 mM inhibitor
Description: as §1, §2

[4] = tested on: β-N-acetylglucosaminidase EC 3.2.1.52; experiment: Commercial glycosidase screening; type: biochemical, Jack beans; conditions: 0.1 mM inhibitor
Description: as §1, §2

[5] = molecular target: T1, α-mannosidase EC 3.2.1.24 (Canavalia ensiformis, UniProt C0HJB3); experiment: Commercial glycosidase screening; type: biochemical; conditions: 0.1 mM inhibitor; read-out: % Inhibition at 0.1 mM, α-mannosidase Jack beans
T1 construct: purchased Sigma-Aldrich or Megazyme Ltd
T1 sequence (C0HJB3 1-981): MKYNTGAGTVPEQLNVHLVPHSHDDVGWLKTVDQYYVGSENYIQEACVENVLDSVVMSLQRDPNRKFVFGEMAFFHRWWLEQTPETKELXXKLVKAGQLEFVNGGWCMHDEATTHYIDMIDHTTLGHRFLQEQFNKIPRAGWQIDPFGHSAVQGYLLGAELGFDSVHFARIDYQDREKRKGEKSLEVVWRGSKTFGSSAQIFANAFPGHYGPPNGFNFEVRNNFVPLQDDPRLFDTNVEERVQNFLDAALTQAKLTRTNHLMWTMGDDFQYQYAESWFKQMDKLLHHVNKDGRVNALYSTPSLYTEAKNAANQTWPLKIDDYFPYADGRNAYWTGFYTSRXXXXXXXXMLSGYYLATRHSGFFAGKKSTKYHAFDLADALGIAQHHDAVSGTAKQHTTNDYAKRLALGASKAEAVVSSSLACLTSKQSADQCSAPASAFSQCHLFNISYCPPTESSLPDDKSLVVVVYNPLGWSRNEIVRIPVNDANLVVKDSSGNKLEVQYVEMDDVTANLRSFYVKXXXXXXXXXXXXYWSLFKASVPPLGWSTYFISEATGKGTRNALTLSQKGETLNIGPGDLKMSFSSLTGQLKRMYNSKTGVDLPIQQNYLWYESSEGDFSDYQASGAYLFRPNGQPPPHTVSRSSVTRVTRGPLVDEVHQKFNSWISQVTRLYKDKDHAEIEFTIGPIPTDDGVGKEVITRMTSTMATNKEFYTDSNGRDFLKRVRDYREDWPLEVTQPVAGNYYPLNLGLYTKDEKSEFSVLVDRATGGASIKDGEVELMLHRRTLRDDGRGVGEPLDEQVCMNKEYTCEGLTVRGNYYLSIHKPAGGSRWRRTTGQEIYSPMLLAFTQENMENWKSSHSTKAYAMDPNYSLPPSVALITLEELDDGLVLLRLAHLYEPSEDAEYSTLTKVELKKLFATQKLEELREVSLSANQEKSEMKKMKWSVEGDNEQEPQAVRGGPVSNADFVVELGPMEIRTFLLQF
Description: as §1, §2

[6] = molecular target: T2, amyloglucosidase EC 3.2.1.3 (Aspergillus niger, UniProt P69328); experiment: Commercial glycosidase screening; type: biochemical; conditions: 0.1 mM inhibitor
T2 construct: purchased Sigma-Aldrich or Megazyme Ltd
T2 sequence (P69328 25-640): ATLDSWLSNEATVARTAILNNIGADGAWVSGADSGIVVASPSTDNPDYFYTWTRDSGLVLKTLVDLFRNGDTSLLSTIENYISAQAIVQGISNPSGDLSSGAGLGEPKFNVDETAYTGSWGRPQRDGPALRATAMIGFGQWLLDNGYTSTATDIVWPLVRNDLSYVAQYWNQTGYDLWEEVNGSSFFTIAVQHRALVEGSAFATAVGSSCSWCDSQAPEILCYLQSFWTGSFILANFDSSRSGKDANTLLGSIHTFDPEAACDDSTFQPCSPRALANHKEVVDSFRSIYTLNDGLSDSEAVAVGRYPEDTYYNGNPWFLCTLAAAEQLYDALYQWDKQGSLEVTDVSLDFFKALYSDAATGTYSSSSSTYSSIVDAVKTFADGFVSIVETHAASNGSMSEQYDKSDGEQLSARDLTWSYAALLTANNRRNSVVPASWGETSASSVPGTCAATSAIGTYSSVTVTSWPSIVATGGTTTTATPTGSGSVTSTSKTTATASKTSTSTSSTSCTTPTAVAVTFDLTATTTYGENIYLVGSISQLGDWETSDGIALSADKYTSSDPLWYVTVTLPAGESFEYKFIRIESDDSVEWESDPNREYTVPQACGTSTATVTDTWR
Description: as §1, §2

[7] = molecular target: T3, β-galactosidase EC 3.2.1.23 (Aspergillus oryzae, UniProt Q2UCU3); experiment: Commercial glycosidase screening; type: biochemical; conditions: 0.1 mM inhibitor
T3 construct: purchased Sigma-Aldrich or Megazyme Ltd
T3 sequence (Q2UCU3 19-1005): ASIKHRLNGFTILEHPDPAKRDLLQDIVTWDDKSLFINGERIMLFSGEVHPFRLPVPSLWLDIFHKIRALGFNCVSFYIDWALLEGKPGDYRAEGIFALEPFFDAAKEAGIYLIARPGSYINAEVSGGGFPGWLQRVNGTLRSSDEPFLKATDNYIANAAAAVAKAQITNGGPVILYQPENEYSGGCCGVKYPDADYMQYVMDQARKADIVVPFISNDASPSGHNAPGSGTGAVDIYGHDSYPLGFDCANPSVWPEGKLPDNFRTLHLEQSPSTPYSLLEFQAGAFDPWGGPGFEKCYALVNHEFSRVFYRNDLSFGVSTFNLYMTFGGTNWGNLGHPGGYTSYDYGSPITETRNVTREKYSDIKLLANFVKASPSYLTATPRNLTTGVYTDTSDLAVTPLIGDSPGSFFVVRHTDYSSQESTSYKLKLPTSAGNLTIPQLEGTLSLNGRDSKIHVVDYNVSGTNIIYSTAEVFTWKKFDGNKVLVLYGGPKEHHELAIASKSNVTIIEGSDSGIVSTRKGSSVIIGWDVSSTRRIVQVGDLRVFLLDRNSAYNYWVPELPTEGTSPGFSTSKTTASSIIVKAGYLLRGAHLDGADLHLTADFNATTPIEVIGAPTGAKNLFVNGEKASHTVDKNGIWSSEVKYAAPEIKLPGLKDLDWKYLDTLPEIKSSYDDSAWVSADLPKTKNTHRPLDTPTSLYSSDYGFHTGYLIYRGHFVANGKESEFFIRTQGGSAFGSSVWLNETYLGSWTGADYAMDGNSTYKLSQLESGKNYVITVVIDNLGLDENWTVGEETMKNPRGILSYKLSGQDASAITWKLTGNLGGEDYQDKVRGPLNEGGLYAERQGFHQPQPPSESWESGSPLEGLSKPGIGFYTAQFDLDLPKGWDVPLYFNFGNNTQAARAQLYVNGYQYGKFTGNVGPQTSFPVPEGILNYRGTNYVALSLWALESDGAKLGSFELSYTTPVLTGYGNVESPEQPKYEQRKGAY
Description: as §1, §2

[8] = molecular target: T4, α-L-fucosidase EC 3.2.1.51 (Homo sapiens, UniProt P04066); experiment: Commercial glycosidase screening; type: biochemical; conditions: 0.1 mM inhibitor
T4 construct: purchased Sigma-Aldrich or Megazyme Ltd
T4 sequence (P04066 32-466): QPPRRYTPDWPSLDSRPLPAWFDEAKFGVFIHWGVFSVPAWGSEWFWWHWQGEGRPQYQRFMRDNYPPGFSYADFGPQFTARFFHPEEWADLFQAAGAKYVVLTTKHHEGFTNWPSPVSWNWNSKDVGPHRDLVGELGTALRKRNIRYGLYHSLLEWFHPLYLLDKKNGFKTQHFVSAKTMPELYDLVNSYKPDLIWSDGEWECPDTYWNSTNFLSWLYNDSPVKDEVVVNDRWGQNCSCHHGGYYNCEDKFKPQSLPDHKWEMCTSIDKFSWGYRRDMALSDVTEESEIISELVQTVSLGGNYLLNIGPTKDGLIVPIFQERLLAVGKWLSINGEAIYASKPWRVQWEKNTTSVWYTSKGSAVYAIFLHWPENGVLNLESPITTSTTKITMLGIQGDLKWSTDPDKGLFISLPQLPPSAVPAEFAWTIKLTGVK
Description: as §1, §2

[9] = molecular target: T5, α-galactosidase EC 3.2.1.22 (Coffea arabica, UniProt Q42656); experiment: Commercial glycosidase screening; type: biochemical; conditions: 0.1 mM inhibitor; read-out: % Inhibition at 0.1 mM, α-galactosidase coffee beans
T5 construct: purchased Sigma-Aldrich or Megazyme Ltd
T5 sequence (Q42656 16-378): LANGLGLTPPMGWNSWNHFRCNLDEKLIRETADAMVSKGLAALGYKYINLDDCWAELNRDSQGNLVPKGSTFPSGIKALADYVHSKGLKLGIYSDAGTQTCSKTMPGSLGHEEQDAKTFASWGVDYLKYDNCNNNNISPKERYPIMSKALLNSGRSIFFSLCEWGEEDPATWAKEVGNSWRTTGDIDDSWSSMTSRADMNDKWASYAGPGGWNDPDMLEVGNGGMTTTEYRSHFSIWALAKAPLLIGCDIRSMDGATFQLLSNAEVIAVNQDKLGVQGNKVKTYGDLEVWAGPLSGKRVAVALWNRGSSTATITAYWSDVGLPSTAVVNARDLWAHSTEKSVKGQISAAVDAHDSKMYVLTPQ
Description: as §1, §2

| SMILES | % Inhibition at 0.1 mM, α-glucosidase yeast [1] | % Inhibition at 0.1 mM, β-mannosidase snail [2] | % Inhibition at 0.1 mM, β-glucosidase almonds [3] | IC50 ([3]; read-out: IC50 (β-glucosidase from almonds)) | % Inhibition at 0.1 mM, β-N-acetylglucosaminidase Jack beans [4] | inhibition at 100 µM [5] | inhibition at 100 µM [6] | inhibition at 100 µM [7] | inhibition at 100 µM [8] | inhibition at 100 µM [9] | melting point |
| --- | --- | --- | --- | --- | --- | --- | --- | --- | --- | --- | --- |
| CCCCCCCCCCCCN[C@H]1CNC[C@@H](O)[C@H]1O [compound 10, (3R, 4S, 5S)-3,4-Dihydroxy-5-(Dodecylamino) Piperidine] | - (no inhibition detected) | - (no inhibition detected) | 51±1% | 85 µM | - (no inhibition detected) | 0% | 0% | 0% | 0% | 0% | 92 to 94 °C |
| CCCCCCCC[C@]1(O)CNC[C@@H](O)[C@H]1O [compound 12, (3S, 4R, 5R)-3,4,5-Trihydroxy-3-Octyl-Piperidine] | - (no inhibition detected) | - (no inhibition detected) | - (no inhibition detected) |  | - (no inhibition detected) | 0% | 0% | 0% | 0% | 0% |  |
| CCCCCCCCCO[C@@H]1CNC[C@@H](O)[C@H]1O [compound 21, (3R, 4R, 5R)-4,5-Dihydroxy-3-(Nonyloxy) Piperidine] | - (no inhibition detected) | - (no inhibition detected) | - (no inhibition detected) |  | - (no inhibition detected) | 0% | 0% | 0% | 0% | 0% |  |
